Where a name gives a salt, the structure may show the parent alone. Read-outs that look alike come from different tables or passages of the source. Blank lines part the entries; values can stand above or below the molecule they belong to.
Experiments:
[1] = molecular target: T1, tyrosinase (derived from mushrooms) (Agaricus bisporus, UniProt C7FF04); test: Test for evaluating inhibition of tyrosinase activity (DOPA substrate, absorbance at 475 nm); type: biochemical
T1 construct: purchased Sigma
T1 sequence (C7FF04 whole entry): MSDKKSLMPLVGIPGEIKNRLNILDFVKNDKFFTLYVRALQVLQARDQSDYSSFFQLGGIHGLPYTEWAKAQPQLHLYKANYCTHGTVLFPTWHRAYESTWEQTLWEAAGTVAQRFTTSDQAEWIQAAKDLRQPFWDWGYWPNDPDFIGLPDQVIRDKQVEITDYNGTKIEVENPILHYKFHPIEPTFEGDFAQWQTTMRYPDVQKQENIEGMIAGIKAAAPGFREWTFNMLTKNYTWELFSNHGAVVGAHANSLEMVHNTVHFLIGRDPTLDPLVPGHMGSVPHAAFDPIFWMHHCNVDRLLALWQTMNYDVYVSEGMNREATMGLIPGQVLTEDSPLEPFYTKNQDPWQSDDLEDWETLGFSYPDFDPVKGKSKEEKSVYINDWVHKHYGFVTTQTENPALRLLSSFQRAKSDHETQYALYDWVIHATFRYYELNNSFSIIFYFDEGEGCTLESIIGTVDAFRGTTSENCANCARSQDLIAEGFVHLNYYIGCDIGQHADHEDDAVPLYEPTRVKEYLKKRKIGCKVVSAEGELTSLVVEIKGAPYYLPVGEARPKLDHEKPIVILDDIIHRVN
Protocol: (§1) After 2 minutes of the addition, the test solution was subjected to measurement of absorbance at 475 nm. Thus-obtained absorbance value was defined as D1. As a control, the same measurement was conducted on a test solution in which each sample was replaced with purified water, and the obtained absorbance value was defined as D2. An inhibition rate of tyrosinase activity was calculated by the following formula.

[2] = tested on: tyrosinase (derived from mushrooms); test: as above; type: biochemical; conditions: for Tyrosinase activity inhibition rate in the case of using both components/Sum of tyrosinase activity inhibition rate in the case of using each component alone: no second component; for Inhibition rate of tyrosinase activity in the case of conbining human manganese SOD/Inhibition rate of tyrosinase activity in the case without addition of human manganese SOD: (B-1) 0 unit/mL
Protocol: as §1

[3] = see paragraphs 0060, 0061 and 0072 of Patent Document 6; cited from earlier work

inhibition at 2500 µg/mL ([1]; (B-2) component only, 2.5 mg/mL, read-out: Inhibition rate of tyrosinase activity (%), (B) component only): 29.9%
Molecule: CCOC1=C(O)C(=O)O[C@@H]1[C@@H](O)CO [3-O-ethylascorbic acid, reference compound]

Molecule: O=C1O[C@H]([C@@H](O)CO)C(O)=C1O [Ascorbic acid, ascorbic acid, reference compound]
inhibition at 10 µg/mL ([1]; read-out: Inhibition rate of tyrosinase activity (%), (B) component only): 28.7%

Inhibition rate of tyrosinase activity (%), (B) component only ([1]; (B-2) component only, 2.5 mg/mL): 40.5%
Molecule: O=C1O[C@H]([C@@H](O)CO)C([O-])=C1OS(=O)(=O)[O-].[Na+].[Na+] [Disodium ascorbyl sulfate, reference compound]

Inhibition rate of tyrosinase activity (%), (B) component only ([1]; (B-2) component only, 5 mg/mL): 11.1%
Molecule: O=C1O[C@H]([C@@H](O)CO)C([O-])=C1OP(=O)([O-])[O-].O=C1O[C@H]([C@@H](O)CO)C([O-])=C1OP(=O)([O-])[O-].[Mg+2].[Mg+2].[Mg+2] [Magnesium ascorbyl phosphate, magnesium ascorbyl phosphate, reference compound]

Molecule: Cc1ncc(CO)c(CO)c1O [Pyridoxine hydrochloride, pyridoxine hydrochloride, reference compound]
inhibition at 5000 µg/mL ([1]; read-out: Inhibition rate of tyrosinase activity (%)): 42.9%

Inhibition rate of tyrosinase activity (%), (B) component only ([1]; (B-2) component only, 5 mg/mL): 15.6%
Molecule: O=C1O[C@H]([C@@H](O)CO)C([O-])=C1OP(=O)([O-])[O-].[Na+].[Na+].[Na+] [Sodium ascorbyl phosphate, sodium ascorbyl phosphate, reference compound]

inhibition rate of tyrosinase activity ([1]; arbutin solely, 3.0% by mass): 71.3%
Molecule: OC[C@H]1O[C@@H](Oc2ccc(O)cc2)[C@H](O)[C@@H](O)[C@@H]1O [arbutin, reference compound]

inhibition rate of tyrosinase activity ([1]; ascorbic acid derivative (ascorbyl glucoside) solely, 2.0% by mass): 21.9%
inhibition at 5000 µg/mL ([1]; ascorbyl glucoside solely, 5 mg/mL, read-out: Inhibition rate of tyrosinase activity (%)): 8.4%
inhibition at 10000 µg/mL ([1]; ascorbyl glucoside solely, 10 mg/mL, read-out: Inhibition rate of tyrosinase activity (%)): 15.4%
inhibition at 20000 µg/mL ([1]; ascorbyl glucoside solely, 20 mg/mL, read-out: Inhibition rate of tyrosinase activity (%)): 26.8%
Molecule: O=C1O[C@H]([C@@H](O)CO)C(O)=C1O[C@H]1O[C@H](CO)[C@@H](O)[C@H](O)[C@H]1O [ascorbyl glucoside, 2-O-α-D-glucopyranosyl-L-ascorbic acid]

Tyrosinase activity inhibition rate in the case of using both components/Sum of tyrosinase activity inhibition rate in the case of using each component alone ([2]; α-lipoic acid 4.31 μg/mL): 1.00
Inhibition rate of tyrosinase activity (%) ([1]; α-lipoic acid solely, 4.31 μg/mL): 0.7%
Molecule: O=C(O)CCCCC1CCSS1 (stereo not drawn) [α-lipoic acid, 6,8-dithiooctanoic acid, reference compound]

Inhibition rate of tyrosinase activity in the case of conbining human manganese SOD/Inhibition rate of tyrosinase activity in the case without addition of human manganese SOD ([2]; (A) 1.08 μg/mL): 1.00
Tyrosinase activity inhibition rate in the case of using both components/Sum of tyrosinase activity inhibition rate in the case of using each component alone ([2]; (A) 1.08 μg/mL): 1.00
Inhibition rate of tyrosinase activity in the case of conbining human manganese SOD/Inhibition rate of tyrosinase activity in the case without addition of human manganese SOD ([2]; (A) 2.15 μg/mL): 1.00
Tyrosinase activity inhibition rate in the case of using both components/Sum of tyrosinase activity inhibition rate in the case of using each component alone ([2]; (A) 2.15 μg/mL): 1.00
Inhibition rate of tyrosinase activity in the case of conbining human manganese SOD/Inhibition rate of tyrosinase activity in the case without addition of human manganese SOD ([2]; (A) 3.23 μg/mL): 1.00
Inhibition rate of tyrosinase activity in the case of conbining human manganese SOD/Inhibition rate of tyrosinase activity in the case without addition of human manganese SOD ([2]; (A) 4.31 μg/mL): 1.00
Inhibition rate of tyrosinase activity (%) ([1]; histidine dithiooctanamide (Na/zinc) solely, 1.08 μg/mL (2.5 μM)): 13.2%
Inhibition rate of tyrosinase activity (%) ([1]; histidine dithiooctanamide (Na/zinc) solely, 2.15 μg/mL (5 μM)): 25.3%
Inhibition rate of tyrosinase activity (%) ([1]; histidine dithiooctanamide (Na/zinc) solely, 3.23 μg/mL (7.5 μM)): 53.6%
Inhibition rate of tyrosinase activity (%) ([1]; histidine dithiooctanamide (Na/zinc) solely, 4.31 μg/mL (10 μM)): 68.9%
Molecule: zinc chelate compound of N-(6,8-dimercaptooctanoyl)-L-histidine sodium salt [histidine dithiooctanamide (Na/zinc)]

B1: MHS:Mn-SOD: human mutant manganese SOD, third amino acid from N-terminus serine substituted with arginine (Patent Document 6) (protein, UniProt P04179 25-222, looked up, variant S3R)
Superoxide dismutase [Mn], …: KHRLPDLPYDYGALEPHINAQIMQLHHSKHHAAYVNNLNVTEEKYQEALAKGDVTAQIALQPALKFNGGGHINHSIFWTNLSPNGGGEPKGELLEAIKRDFGSFDKFKEKLTAASVGVQGSGWGWLGFNKERGHLQIAACPNQDPLQGTTGLIPLLGIDVWEHAYYLQYKNVRPDYLKAIWNVINWENVTERYMACKK
isoelectric point [3]: about 8.2

Inhibition rate of tyrosinase activity (%) ([1]; human manganese SOD solely, 3 units/mL): 4.53%
Inhibition rate of tyrosinase activity (%) ([1]; human manganese SOD solely, 3 units/mL, listed as (B-1) component): 4.5%
Inhibition rate of tyrosinase activity (%) ([1]; human manganese SOD solely, 15 units/mL): 3.74%
Inhibition rate of tyrosinase activity (%) ([1]; human manganese SOD solely, 15 units/mL, listed as (B-1) component): 3.7%
Inhibition rate of tyrosinase activity (%) ([1]; human manganese SOD solely, 150 units/mL): 4.66%
Inhibition rate of tyrosinase activity (%) ([1]; human manganese SOD solely, 150 units/mL, listed as (B-1) component): 4.7%
B2: human manganese SOD: human manganese superoxide dismutase, "yeast extract (SOD)" commercially available from Biox Technologies, 3,000 units/mL (protein, UniProt P04179 25-222, looked up)
Superoxide dismutase [Mn], …: KHSLPDLPYDYGALEPHINAQIMQLHHSKHHAAYVNNLNVTEEKYQEALAKGDVTAQIALQPALKFNGGGHINHSIFWTNLSPNGGGEPKGELLEAIKRDFGSFDKFKEKLTAASVGVQGSGWGWLGFNKERGHLQIAACPNQDPLQGTTGLIPLLGIDVWEHAYYLQYKNVRPDYLKAIWNVINWENVTERYMACKK
